One series has as its target VIM-2 (Escherichia coli, UniProt Q5U7L7). The series is described as follows: biochemical. As to conditions: CCF2-FA fluorescence assay; read-out: VIM2 IC50.
The target in the next series is NDM-1 (Klebsiella pneumoniae, UniProt C7C422). The series is described as follows: biochemical. Type of series: biochemical. To be noted: CCF2-FA fluorescence assay, 2 hours at 25° C. An outline of the steps:
(§1)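 Each enzyme (final 1 pM NDM-1, 2 pM IMP-1, 30 pM VIM-1) was incubated with test inhibitor (20 μM to 0.00063 μM) and 1.25 μM CCF2-FA for 2 hours at 25° C in zinc-supplemented phosphate buffer, pH 7. Fluorescence at 460 nm was then read and IC50 fitted with four parameters.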

The target in a further series is IMP-1 (Serratia marcescens, UniProt P52699). The series is described as follows: biochemical. As to conditions: CCF2-FA fluorescence assay, 2 hours at 25° C.; read-out: IMP1 IC50. In outline: as §1
Chain of IMP-1 (P52699 whole entry, looked up, species assumed): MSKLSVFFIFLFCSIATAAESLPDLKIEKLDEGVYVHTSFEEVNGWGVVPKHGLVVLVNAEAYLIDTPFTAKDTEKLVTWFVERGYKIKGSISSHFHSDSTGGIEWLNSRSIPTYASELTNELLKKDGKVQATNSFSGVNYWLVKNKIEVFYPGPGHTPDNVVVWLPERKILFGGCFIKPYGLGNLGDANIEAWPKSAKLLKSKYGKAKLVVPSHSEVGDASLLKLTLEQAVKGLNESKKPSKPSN
A further series deals with VIM-1 (Pseudomonas aeruginosa (strain ATCC 15692 / DSM 22644 / CIP 104116 / JCM 14847 / LMG 12228 / 1C / PRS 101 / PAO1), UniProt A0A0F7KYQ8). The series is described as follows: biochemical. To be noted: CCF2-FA fluorescence assay, 2 hours at 25° C.; read-out: VIM1 IC50. An outline of the steps:
as §1

Series [1] concerns Klebsiella pneumoniae expressing VIM-1 (IHMA599644). The series is classed as cell-based. To be noted: with imipenem 1 μg/ml; 95% inhibition of bacterial growth. An outline of the steps: (§2)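 Read-out is absorbance after 22–24 h at 35 °C, with MITC95 taken as the lowest inhibitor concentration that, alongside imipenem at 1 μg/ml, suppresses 95% of bacterial growth. Inocula came from saline-suspended colonies diluted 1:100 into 1.1× CAMHB.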

Series [2] relates to Serratia marcescens expressing IMP-1 (CL5741). The series is classed as cell-based. As to conditions: with imipenem 1 μg/ml; 95% inhibition of bacterial growth. An outline of the steps:
as §2

For series [3], the system named is Escherichia coli expressing NDM-1 (CLB30016). Type of series: cell-based. To be noted: with imipenem 1 μg/ml; 95% inhibition of bacterial growth. In outline:
as §2

Series [4] has as its system P. aeruginosa MB9799 (efflux-, IMP-1 plasmid). The series is classed as cell-based, Pseudomonas aeruginosa. As to conditions: efflux − (MB9799) strain; imipenem at 2 μg/mL; in the presence of a class A, C, D serine β-lactamase inhibitor closely related to relebactam. In outline: (§3)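 Isogenic P. aeruginosa PAO1 strains (efflux+ and multiple-efflux-pump-disrupted) carrying plasmid IMP-1, with inducible AmpC, tested by broth microdilution. Imipenem and/or ceftazidime fixed, usually at CLSI breakpoint, plus fixed class A/C β-lactamase inhibitor; titrated MBL inhibitor concentration restoring susceptibility recorded and compared between strains as efflux fold difference.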

Series [5] relates to P. aeruginosa MB9798 (efflux+, IMP-1 plasmid). As to conditions: for MB9798 MITC95 P. aeruginosa uM Efflux WT: efflux + (MB9798) strain, imipenem at 2 μg/mL, in the presence of a class A, C, D serine β-lactamase inhibitor closely related to relebactam; for Efflux ratio: fold difference between efflux+ (MB9798) and efflux− (MB9799) strains. In outline: as §3

Chain of NDM-1 (C7C422 whole entry, looked up, species assumed): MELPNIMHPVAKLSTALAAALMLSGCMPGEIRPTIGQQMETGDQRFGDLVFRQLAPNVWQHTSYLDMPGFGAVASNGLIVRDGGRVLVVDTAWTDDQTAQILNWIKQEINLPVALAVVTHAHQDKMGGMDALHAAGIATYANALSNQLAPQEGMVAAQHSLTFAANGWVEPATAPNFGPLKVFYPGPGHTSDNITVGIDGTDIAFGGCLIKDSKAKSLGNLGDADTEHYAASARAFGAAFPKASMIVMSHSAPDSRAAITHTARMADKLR

Broadly, the IC50 is the midpoint of a concentration-inhibition curve. `NC[C@@H](O)CNS(=O)(=O)c1ccc(N2CCC(n3ccnc3)CC2)c(-c2nnn[nH]2)c1S(N)(=O)=O` [Example 174, (R)-4-(4-(1H-imidazol-1-yl)piperidin-1-yl)-N1-(3-amino-2-hydroxypropyl)-3-(2H-tetrazol-5-yl)benzene-1,2-disulfonamide]: the IC50 on VIM-2 was found to be 0.22 nM; on NDM-1, 0.69 nM; on IMP-1 it was 0.36 nM; at VIM-1 it was 0.07 nM. Besides, the “IHMA599644 K. pneumoniae MITC95 VIM” value in series [1] worked out at 3.13 µM. Moreover, the “CL5741 S. marcescens MITC95 IMP” value in series [2] is 0.78 µM. Also, in series [3], the “CLB30016 E. coli MITC95 NDM” value worked out at 0.78 µM. The “MB9799 MITC95 P. aeruginosa uM Efflux Mutant” value in series [4] came to 1.56 µM. For the same compound, the “MB9798 MITC95 P. aeruginosa uM Efflux WT” value in series [5] stood at 3.13 µM. In addition, in series [5], the Efflux ratio was 2.00.
Regarding `NS(=O)(=O)c1c(S(=O)(=O)N[C@@H]2CCNC2)ccc(N2CCC(O)CC2=O)c1-c1nn[nH]n1` (stereo partly drawn) [Example 159, 4-(4-hydroxy-2-oxopiperidin-1-yl)-N1-((R)-pyrrolidin-3-yl)-3-(2H-tetrazol-5-yl)benzene-1,2-disulfonamide], the IC50 was 2.62 nM at VIM-2, 0.61 nM against NDM-1, 15.9 nM on IMP-1 and 0.38 nM at VIM-1. For the same compound, in series [1], the “IHMA599644 K. pneumoniae MITC95 VIM” value was 6.25 µM. The “CL5741 S. marcescens MITC95 IMP” value in [2] was found to be 0.78 µM. Besides, the “CLB30016 E. coli MITC95 NDM” value in series [3] was 1.56 µM. Further, the “MB9799 MITC95 P. aeruginosa uM Efflux Mutant” value in [4] was found to be 1.56 µM. The “MB9798 MITC95 P. aeruginosa uM Efflux WT” value in series [5] came out at 6.25 µM. In addition, the Efflux ratio in series [5] is given as 4.00.
Regarding `C[N+](C)(C)CCCCNc1ccc(S(=O)(=O)N[C@@H]2CCNC2)c(S(N)(=O)=O)c1-c1nnn[nH]1` [Example 72, N,N,N-trimethyl-4-({4-[(3R)-pyrrolidin-3-ylsulfamoyl]-3-sulfamoyl-2-(1H-tetrazol-5-yl)phenyl}amino)butan-1-aminium], the IC50 worked out at 6.04 nM on VIM-2, 3.31 nM against NDM-1, 9.32 nM on IMP-1 and 2.01 nM at VIM-1. Also, the “IHMA599644 K. pneumoniae MITC95 VIM” value in [1] is 6.25 µM. The “CL5741 S. marcescens MITC95 IMP” value in [2] turned out to be 3.13 µM. The “CLB30016 E. coli MITC95 NDM” value in series [3] stood at 1.56 µM. Also, the “MB9799 MITC95 P. aeruginosa uM Efflux Mutant” value in [4] came to 3.13 µM. In addition, the “MB9798 MITC95 P. aeruginosa uM Efflux WT” value in series [5] was 25.00 µM. The Efflux ratio in series [5] is on record as 8.00.
Turning to `NS(=O)(=O)c1c(S(=O)(=O)N[C@@H]2CCNC2)ccc(N2CCC(O)CC2)c1-c1nnn[nH]1` [Example 63, 4-(4-hydroxypiperidin-1-yl)-N1-[(3R)-pyrrolidin-3-yl]-3-(1H-tetrazol-5-yl)benzene-1,2-disulfonamide], the IC50 at VIM-2 amounted to 0.66 nM; at NDM-1 it was 0.31 nM; at IMP-1 it was 0.47 nM; at VIM-1 it was 0.16 nM. Besides, in [1], the “IHMA599644 K. pneumoniae MITC95 VIM” value came to 6.25 µM. The “CL5741 S. marcescens MITC95 IMP” value in series [2] was 3.13 µM. Further, the “CLB30016 E. coli MITC95 NDM” value in series [3] was 3.13 µM. In series [4], the “MB9799 MITC95 P. aeruginosa uM Efflux Mutant” value was found to be 1.56 µM. Moreover, the “MB9798 MITC95 P. aeruginosa uM Efflux WT” value in series [5] is 1.56 µM. Further, the Efflux ratio in series [5] was found to be 1.00.
For `NCCN1CCN(c2ccc(S(=O)(=O)NC[C@H](O)CN)c(S(N)(=O)=O)c2-c2nnn[nH]2)CC1` [Example 51, (R)-N1-(3-amino-2-hydroxypropyl)-4-(4-(2-aminoethyl)piper-azin-1-yl)-3-(1H-tetrazol-5-yl)benzene-1,2-disulfonamide], the IC50 at VIM-2 is 3.07 nM; against NDM-1, 1.4 nM; on IMP-1, 1.92 nM; on VIM-1, 0.29 nM. Moreover, the “IHMA599644 K. pneumoniae MITC95 VIM” value in series [1] came to 0.78 µM. Besides, the “CL5741 S. marcescens MITC95 IMP” value in series [2] turned out to be 0.39 µM. The “CLB30016 E. coli MITC95 NDM” value in series [3] is 0.78 µM. In addition, the “MB9799 MITC95 P. aeruginosa uM Efflux Mutant” value in series [4] came to 0.39 µM. Further, in series [5], the “MB9798 MITC95 P. aeruginosa uM Efflux WT” value was found to be 0.78 µM. Besides, in series [5], the Efflux ratio was found to be 2.00.
Regarding `NS(=O)(=O)c1c(S(=O)(=O)N[C@@H]2CCNC2)ccc(N2CCC(CCO)C2)c1-c1nnn[nH]1` (stereo partly drawn) [Example 81, 4-[3-(2-hydroxyethyl)pyrrolidin-1-yl]-N1-[(3R)-pyrrolidin-3-yl]-3-(1H-tetrazol-5-yl)benzene-1,2-disulfonamide], the IC50 at VIM-2 is 1 nM; on NDM-1 it was 0.64 nM; at IMP-1, 0.62 nM; at VIM-1, 0.51 nM. In addition, the “IHMA599644 K. pneumoniae MITC95 VIM” value in series [1] was determined as 6.25 µM. The “CL5741 S. marcescens MITC95 IMP” value in series [2] was 3.13 µM. Also, the “CLB30016 E. coli MITC95 NDM” value in series [3] was found to be 3.13 µM. In addition, the “MB9799 MITC95 P. aeruginosa uM Efflux Mutant” value in [4] worked out at 3.13 µM. In addition, the “MB9798 MITC95 P. aeruginosa uM Efflux WT” value in [5] came out at 6.25 µM. The Efflux ratio in [5] came to 2.00.
With `NS(=O)(=O)c1c(S(=O)(=O)N[C@@H]2CCNC2)ccc(N2CCC(Oc3ccccn3)CC2)c1-c1nnn[nH]1` [Example 110, 4-[4-(pyridin-2-yloxy)piperidin-1-yl]-N1-[(3R)-pyrrolidin-3-yl]-3-(1H-tetrazol-5-yl)benzene-1,2-disulfonamide], the IC50 on VIM-2 is 0.47 nM; against NDM-1 it was 0.06 nM; on IMP-1, 0.1 nM; at VIM-1 it was 0.12 nM. Also, the “IHMA599644 K. pneumoniae MITC95 VIM” value in series [1] was 6.25 µM. For the same compound, the “CL5741 S. marcescens MITC95 IMP” value in [2] worked out at 3.13 µM. In addition, the “CLB30016 E. coli MITC95 NDM” value in [3] is 3.13 µM. For the same compound, in series [4], the “MB9799 MITC95 P. aeruginosa uM Efflux Mutant” value was 1.56 µM. Further, the “MB9798 MITC95 P. aeruginosa uM Efflux WT” value in series [5] amounted to 50.00 µM. In addition, the Efflux ratio in [5] is reported as 31.99.
`N[C@H]1CCN(c2ccc(S(=O)(=O)N[C@@H]3CCNC3)c(S(N)(=O)=O)c2-c2nn[nH]n2)C[C@H]1F` [Example 199, 4-((3R,4S)-4-amino-3-fluoropiperidin-1-yl)-N1-((R)-pyrrolidin-3-yl)-3-(2H-tetrazol-5-yl)benzene-1,2-disulfonamide]: the IC50 at VIM-2 came to 4.27 nM; at NDM-1, 1.69 nM; on IMP-1 it was 6.11 nM; on VIM-1, 0.18 nM. Besides, the “IHMA599644 K. pneumoniae MITC95 VIM” value in series [1] was 0.39 µM. Further, in series [2], the “CL5741 S. marcescens MITC95 IMP” value worked out at 0.10 µM. In addition, in [3], the “CLB30016 E. coli MITC95 NDM” value turned out to be 0.39 µM. The “MB9799 MITC95 P. aeruginosa uM Efflux Mutant” value in [4] is 0.78 µM. Moreover, in series [5], the “MB9798 MITC95 P. aeruginosa uM Efflux WT” value was found to be 0.78 µM. Besides, the Efflux ratio in series [5] was 1.00.
Regarding `CC1(CN)CCN(c2ccc(S(=O)(=O)NC[C@H](O)CN)c(S(N)(=O)=O)c2-c2nn[nH]n2)CC1` [Example 138, (R)-N1-(3-amino-2-hydroxypropyl)-4-(4-(aminomethyl)-4-methylpiperidin-1-yl)-3-(2H-tetrazol-5-yl)benzene-1,2-disulfonamide], the IC50 at VIM-2 was 10.3 nM; against NDM-1, 2.47 nM; on IMP-1 it was 6.91 nM; at VIM-1, 0.71 nM. In series [1], the “IHMA599644 K. pneumoniae MITC95 VIM” value worked out at 1.56 µM. The “CL5741 S. marcescens MITC95 IMP” value in [2] was found to be 1.56 µM. Further, in series [3], the “CLB30016 E. coli MITC95 NDM” value is 1.56 µM. In series [4], the “MB9799 MITC95 P. aeruginosa uM Efflux Mutant” value is 0.78 µM. Also, the “MB9798 MITC95 P. aeruginosa uM Efflux WT” value in [5] is 1.56 µM. For the same compound, in [5], the Efflux ratio was found to be 2.00.

The record behind these values is patent publication US11207312B2, “Metallo-beta-lactamase inhibitors and methods of use thereof” (priority 2017, dated 2021).
